The values below come from patent US20100035823A1, “LIGANDS OF SH3 DOMAINS” (ALBERT EINSTEIN COLLEGE OF MEDICINE OF YESHIVA UNIVERSITY, priority 2005, published 2010).

Common to all, as to type: binding
Assay [1] addresses T1, Fyn SH3 domain (Fyn SH3-GST fusion protein) (Homo sapiens, UniProt P06241).
T1 construct: The GST-SH3 fusion proteins, Fyn (85-139) and Lck (54-120); purchased Santa Cruz Biotechnology
Put plainly: Determination of Kd values by equilibrium dialysis (fluorescence), Fyn SH3 domain. The following applies: for Kd: Fyn SH3 domain; for Selectivity among Src family SH3 domains (in words): Fyn versus other Src kinase family SH3 domains; for Enhancement in Fyn SH3 affinity relative to parent peptide 9: ratio of KD values versus acetylated derivative 9. The procedure:
Determination of Kd Values. […] Therefore, the KD values for the SH3 complexes of these species were determined via equilibrium dialysis. All samples were prepared in buffer containing TBS and 1 mM DTT at pH 7.5. Slide-A-Lyzer dialysis slide cassette (0.1-0.5 mL capacity) was employed and contained 30 nM or 500 nM Fyn SH3-GST fusion proteins. The cassettes (400 μL final volume) were placed in a beaker containing a volume of buffer solution (TBS and 1 mM DTT at pH 7.5) that was at least 400-fold greater than that of the sample volume in the dialysis cassette. As a consequence, concentrations of non-SH3-bound peptide were held constant in the dialysis slide cassette over the course of the experiment. Equilibrium dialysis experiments were performed over a period of at least 16 hr and maintained at 4°C. Differences in the fluorescence between the solution in the slide cassette and that in the beaker were measured. The excitation wavelength employed for the peptides were 328 nm. Emission was monitored at 378 nm. The Kd values were calculated from the following equation for fluorescent peptides 8a, 11a, 14 and 7, where [E]t=total enzyme concentration; [E·L]=enzyme-peptide complex; [L]=free peptide concentration.
For non-fluorescent peptide 9, the following equation was used for the determination of Kd′:
Where Kd=the dissociation constant of competition fluorescent peptide, [L′]=total lion-fluorescent peptide concentration, [L]=total competitive fluorescent peptide concentration, [E]t=total SH3 domain concentration; [E·L]=enzyme-peptide (fluorescent competitive peptide) complex concentration.
(In general: In equilibrium dialysis only unbound substance equilibrates across the membrane.)

The target of a further assay is T2, Lck SH3 domain (Homo sapiens, UniProt P06239).
T2 construct: The GST-SH3 fusion proteins, Fyn (85-139) and Lck (54-120); GST; purchased Santa Cruz Biotechnology
Put plainly: Determination of Kd values by equilibrium dialysis (fluorescence), Lck SH3 domain. The following applies: read-out: Dissociation constant (KD), Lck.

A further assay concerns the target Src SH3 domain (Homo sapiens, UniProt P12931). Put plainly: Determination of Kd values by equilibrium dialysis (fluorescence), Src SH3 domain. The following applies: read-out: Dissociation constant (KD), Src.
For the next assay, the target named is Yes SH3 domain (Homo sapiens, UniProt P07947). Put plainly: Determination of Kd values by equilibrium dialysis (fluorescence), Yes SH3 domain. The following applies: read-out: Dissociation constant (KD), Yes.
The next assay deals with T3, Hck SH3 domain (Homo sapiens, UniProt P08631).
T3 construct: particularly with respect to the SH3 domains from Lck and Hck
Description: Determination of Kd values by equilibrium dialysis (fluorescence), Hck SH3 domain. The following applies: read-out: Dissociation constant (KD), Hck.

Assay [2] has as its target T4, Fyn SH3-GST fusion protein (Homo sapiens, UniProt P06241).
T4 construct: The GST-SH3 fusion proteins, Fyn (85-139) and Lck (54-120); purchased Santa Cruz Biotechnology
Put plainly: Competition ELISA against microwell-bound biotinylated peptoid 6. The conditions noted are these: competition with biotinylated peptoid 6, read-out: IC50 (relative affinity) in ELISA assay. Here is the method:
We employed Arg-Ala-Leu-Pro-Pro-Leu-Pro as the starting point for Fyn SH3 ligand optimization, a sequence that is consistent with most known SH3 domain-binding elements. We initially introduced diversity elements on the N-terminus of this peptide to furnish Library I (FIG. 2). The 720 individual members of this library were subsequently assessed for SH3 binding potency via an ELISA-based screen. The latter was performed in parallel using streptavidin-coated 96 well plates. A biotinylated-peptide SH3-directed ligand was appended to the individual wells and a GST-SH3 domain fusion protein was subsequently introduced. Competition between members of the library and the microwell-bound biotinylated peptide ligand determined the extent to which the GST-SH3 protein was retained by the individual wells after washing. The latter was quantified using an anti-GST-peroxidase fusion construct. The assay is dependent upon a strong binding interaction between the GST-SH3 domain and the biotinylated peptide ligand associated with the streptavidin-coated well. […]
Screening of the Peptide/Nonpeptide Conjugate Library. […] 100 μL of 1M sulfuric acid solution was introduced to stop the peroxidase reaction and absorbance was measured at 450 nm with a plate reader. […]
(In general: An ELISA detects its analyte on a solid surface through an enzyme-linked reagent.)

[3] abbreviates: equilibrium dialysis, 4°C, pH 7.5, read-out: Dissociation constant (KD), Fyn.

Where two headings read alike, the source gives them in different places. Where a SMILES comes first, the peptide text is derived from it. [ ]: non-standard residue; d: D form. The star is where a group is joined. FITC = O=C1OC2(c3ccc(O)cc3Oc3cc(O)ccc32)c2ccc(NC(=S)*)cc21; Benzoyl(2,3-diOH) = O=C(c1cccc(O)c1O)*; Nicotinoyl(2-OH) = O=C(c1cccnc1O)*; Nspe = C[C@H](NCC(=O)O)c1ccccc1; X1 = O=C([C@H](O)c1ccccc1)*; Dap = NC[C@H](N)C(=O)O; Ahx = NCCCCCC(=O)O Bounds are passed on as bounds.

T2 sequence (P06239 54-120): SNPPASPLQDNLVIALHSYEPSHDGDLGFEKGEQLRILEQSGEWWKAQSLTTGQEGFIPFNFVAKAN
Yes SH3 domain, sequence (P07947 91-152 limits assumed): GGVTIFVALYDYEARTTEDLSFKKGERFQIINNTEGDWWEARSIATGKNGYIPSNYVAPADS
T3 sequence (P08631 78-138 limits assumed): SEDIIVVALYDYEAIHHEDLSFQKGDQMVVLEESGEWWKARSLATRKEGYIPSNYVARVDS
T1 sequence (P06241 85-139): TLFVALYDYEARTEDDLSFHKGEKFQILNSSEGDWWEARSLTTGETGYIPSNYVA
T4 sequence (P06241 85-139): as above

As a reminder, the Kd is the constant that tells how readily two partners part at equilibrium. Turning to `CC(C)C[C@H](NC(=O)[C@@H]1CCCN1C(=O)[C@@H]1CCCN1C(=O)[C@H](C)NC(=O)[C@H](Cc1ccc(O)cc1)NC(=O)CCCCCNC(=O)CCCCCNC(=S)Nc1ccc2c(c1)C(=O)OC21c2ccc(O)cc2Oc2cc(O)ccc21)C(=O)N(CC(=O)N1CCC[C@H]1C(=O)N[C@@H](CCCNC(=N)N)C(=O)N[C@@H](CC(N)=O)C(=O)N[C@@H](CCCNC(=N)N)C(=O)N1CCC[C@H]1C(=O)N[C@@H](CCCNC(=N)N)C(=O)N[C@@H](C)C(N)=O)[C@@H](C)c1ccccc1` [Ligand 7] ({FITC-Ahx-Ahx}-YAPPL[Nspe]PRNRPRA-NH2), the Kd in assay [1] (values in nM, read-out: KD for the Fyn SH3 domain) came out at 230 ± 30 nM. Further, the “Selectivity among Src family SH3 domains (in words)” value in assay [1] is given as “little selectivity versus other members of the Src kinase family”.
The IC50 is the concentration needed to halve the response being measured. With `CC(C)C[C@H](NC(=O)[C@@H]1CCCN1C(=O)[C@@H]1CCCN1C(=O)[C@H](CC(C)C)NC(=O)[C@H](C)NC(=O)[C@H](CCCNC(=N)N)NC(=O)c1cccnc1O)C(=O)N1CCC[C@H]1C(N)=O` [Ligand 8a] ({Nicotinoyl(2-OH)}-RALPPLP-NH2), the Kd in assay [1] (setting [3]) is 1200 ± 200 nM; on Lck SH3 domain, 5300 ± 400 nM; on Src SH3 domain it was 2500 ± 200 nM; on Yes SH3 domain it was 2700 ± 300 nM; at Hck SH3 domain, 5100 ± 700 nM. The “Selectivity among Src family SH3 domains (in words)” value in assay [1] was “some selectivity in favor of Fyn”. For the same compound, the “Enhancement in Fyn SH3 affinity relative to parent peptide 9” value in assay [1] is ~15 fold. Also, in assay [2], the IC50 was 15 µM.
`CC(C)C[C@H](NC(=O)[C@@H]1CCCN1C(=O)[C@@H]1CCCN1C(=O)[C@H](CC(C)C)NC(=O)[C@H](C)NC(=O)[C@H](CCCNC(=N)N)NC(=O)c1cccnc1O)C(=O)N1CCC[C@H]1C(=O)N[C@@H](CNC(=O)c1cccc(O)c1O)C(N)=O` [Ligand 11a] ({Nicotinoyl(2-OH)}-RALPPLP[Dap](Benzoyl(2,3-diOH))-NH2): the Kd in assay [1] (setting [3]) was found to be 110 ± 30 nM; at Lck SH3 domain, 590 ± 80 nM; at Src SH3 domain, 370 ± 50 nM; on Yes SH3 domain, 380 ± 140 nM; at Hck SH3 domain it was 620 ± 70 nM. For the same compound, the “Selectivity among Src family SH3 domains (in words)” value in assay [1] was “slight improvement in selectivity for the Fyn SH3 domain relative to Lck and Hck”. The “Enhancement in Fyn SH3 affinity relative to parent peptide 9” value in assay [1] is recorded as > 100 fold.
For the compound `CC(C)C[C@H](NC(=O)[C@@H]1CCCN1C(=O)[C@@H]1CCCN1C(=O)[C@H](CC(C)C)NC(=O)[C@H](CNC(=O)[C@H](O)c1ccccc1)NC(=O)[C@H](CCCNC(=N)N)NC(=O)c1cccnc1O)C(=O)N1CCC[C@H]1C(=O)N[C@@H](CNC(=O)c1cccc(O)c1O)C(N)=O` [Ligand 14] ({Nicotinoyl(2-OH)}-R[Dap](X1)LPPLP[Dap](Benzoyl(2,3-diOH))-NH2), the Kd in assay [1] (setting [3]) came to 25 ± 5 nM; on Lck SH3 domain, 270 ± 30 nM; at Src SH3 domain, 230 ± 40 nM; at Yes SH3 domain, 190 ± 20 nM; on Hck SH3 domain, 260 ± 30 nM. Further, the “Selective affinity for Fyn versus SH3 domains from other Src kinase family members” value in assay [1] (Fyn versus Lck, Src, Yes, Hck SH3 domains) worked out at 10 fold.
